Source: ChEMBL document CHEMBL5252551, “A hit deconstruction approach for the discovery of fetal hemoglobin inducers” (Bioorg Med Chem Lett, 2018)
≈ marks a conversion by molar mass, not a printed value. Calls of active or inactive are those of the source. The rule behind the calls is not given here.

Columns and labels:
[1] = Induction of HbF production in human erythroid progenitor cells measured after 3 days by ELISA assay; assay type: functional, cell-based; settings: Erythroid progenitor cell, 72 h
[2] = Solubility of the compound in FaSSIF; assay type: ADME
[3] = Cmax in Sprague-Dawley rat at 1 mg/kg,iv; assay type: ADME, organism-based; set-up: dose 1 mg/kg, route iv; settings: in vivo
[4] = Cmax in Sprague-Dawley rat at 5 mg/kg,po; assay type: ADME, organism-based; set-up: dose 5 mg/kg, route po; settings: in vivo
[5] = Volume of distribution at steady state in Sprague-Dawley rat at 5 mg/kg,po or 1 mg/kg,iv; assay type: ADME, organism-based; settings: in vivo
[6] = Half life in Sprague-Dawley rat at 1 mg/kg, iv; assay type: ADME, organism-based; settings: in vivo
[7] = Half life in Sprague-Dawley rat at 5 mg/kg,po; assay type: ADME, organism-based; settings: in vivo
[8] = Dose normalized AUC in Sprague-Dawley rat at 1 mg/kg, iv; assay type: ADME, organism-based; settings: in vivo
[9] = Dose normalized AUC in Sprague-Dawley rat at 5 mg/kg,po; assay type: ADME, organism-based; settings: in vivo
[10] = Oral bioavailability in Sprague-Dawley rat at 5 mg/kg; assay type: ADME, organism-based; settings: in vivo
[11] = Genotoxicity in Salmonella typhimurium in presence of S9 fraction by Ames test; assay type: toxicity, subcellular; settings: salmonella enterica subsp. enterica serovar typhimurium
[12] = Genotoxicity in Salmonella typhimurium in absence of S9 fraction by Ames test; assay type: toxicity; settings: salmonella enterica subsp. enterica serovar typhimurium
[13] = Solubility of the compound in simulated intestinal fluid measured after 4 hrs; assay type: ADME
[14] = tested on: Erythroid progenitor cell; assay: (§1) Induction of HbF production in human erythroid progenitor cells at upto 33 uM measured after 3 days by ELISA assay; assay type: functional, cell-based; settings: time 3.0 day
[15] = Cmax in Sprague-Dawley rat at 100 mg/kg,po; assay type: ADME, organism-based; set-up: dose 100 mg/kg, route po; settings: in vivo
[16] = Half life in Sprague-Dawley rat at 100 mg/kg,po; assay type: ADME, organism-based; settings: in vivo
[17] = Dose normalized AUC in Sprague-Dawley rat at 100 mg/kg,po; assay type: ADME, organism-based; settings: in vivo
[18] = Oral bioavailability in Sprague-Dawley rat at 100 mg/kg; assay type: ADME, organism-based; settings: in vivo
[19] = as §1; assay type: functional, cell-based; settings: Erythroid progenitor cell, 72 h
[20] = Oral bioavailability in Sprague-Dawley rat at 28 mg/kg; assay type: ADME, organism-based; settings: in vivo
[21] = Dose normalized AUC in Sprague-Dawley rat at 28 mg/kg,po; assay type: ADME, organism-based; settings: in vivo
[22] = Half life in Sprague-Dawley rat at 28 mg/kg,po; assay type: ADME, organism-based; settings: in vivo
[23] = Cmax in Sprague-Dawley rat at 28 mg/kg,po; assay type: ADME, organism-based; set-up: dose 28 mg/kg, route po; settings: in vivo
[24] = Cmax in Sprague-Dawley rat at 10 mg/kg,po; assay type: ADME, organism-based; set-up: dose 10 mg/kg, route po; settings: in vivo
[25] = Half life in Sprague-Dawley rat at 10 mg/kg,po; assay type: ADME, organism-based; settings: in vivo
[26] = Dose normalized AUC in Sprague-Dawley rat at 10 mg/kg,po; assay type: ADME, organism-based; settings: in vivo
[27] = Oral bioavailability in Sprague-Dawley rat at 10 mg/kg; assay type: ADME, organism-based; settings: in vivo

For `OB1OCc2ccc(Oc3nnn[nH]3)cc21`, the EC50 ([1]; read-out: pEC50 (converted)) was 129 nM and the solubility [2] was over 1000 µg/mL.

In the case of `O=C(O)Cc1ccc2c(c1)B(O)OC2`, the EC50 ([1]; read-out: pEC50 (converted)) is reported as 1070 nM and the solubility [2] is reported as over 1000 µg/mL.

In the case of `O=C(O)c1ccn(-c2ccc3c(c2)B(O)OC3)c1`, the EC50 ([1]; read-out: pEC50 (converted)) is reported as 316 nM and the solubility [2] is reported as 510 µg/mL (≈ 2.1 mM).

`O=C(Nc1cccn(Cc2ccccc2)c1=O)c1cc2c(cc1F)COB2O` showed an EC50 ([1]; read-out: pEC50 (converted)) of over 31600 nM.

With `O=C(CNC(=O)c1ccc2c(c1)B(O)OC2)NCc1ccccc1` the EC50 ([1]; read-out: pEC50 (converted)) was over 31600 nM.

`CC(C)(C(=O)O)c1ccc2c(c1)B(O)OC2` gave an EC50 ([1]; read-out: pEC50 (converted)) of 115 nM and a solubility [2] of over 1000 µg/mL.

Compound `O=C(CCc1ccc2c(c1)B(O)OC2)NS(=O)(=O)c1ccccc1` has an EC50 ([1]; read-out: pEC50 (converted)) of 832 nM and a solubility [2] of over 1000 µg/mL.

In the case of `O=C(O)CNC(=O)c1ccc2c(c1)B(O)OC2`, the EC50 ([1]; read-out: pEC50 (converted)) is reported as over 31600 nM.

Work on `CCC(C(=O)O)c1ccc2c(c1)B(O)OC2` (racemic) yielded an EC50 ([1]; read-out: pEC50 (converted)) of 50.1 nM and a solubility [2] of 850 µg/mL (≈ 3.86 mM).

In the case of `O=C(Cc1ccc2c(c1)B(O)OC2)NS(=O)(=O)C1CC1`, the EC50 ([1]; read-out: pEC50 (converted)) is reported as 18.2 nM and the solubility [2] is reported as 700 µg/mL (≈ 2.37 mM).

With `O=C(NS(=O)(=O)c1ccc2c(c1)B(O)OC2)c1ccccc1` the EC50 ([1]; read-out: pEC50 (converted)) was 110 nM and the solubility [2] was 980 µg/mL (≈ 3.09 mM).

`NC(=O)CNC(=O)c1ccc2c(c1)B(O)OC2` gave an EC50 ([1]; read-out: pEC50 (converted)) of over 31600 nM.

Work on `O=C(Nc1ccc2c(c1)B(O)OC2)c1cccn(Cc2ccccc2)c1=O` yielded a Cmax [3] of 792 ng/mL, a Cmax [4] of 1420 ng/mL and a Vdss [5] of 1.7 L/kg. The half-life [6] was 6.4 h, the half-life [7] was 4.5 h and the AUC/dose [8] was 4210 kg·ng·h/mL/mg. The AUC/dose [9] was 1120 kg·ng·h/mL/mg and the bioavailability [10] was 27%.

In the case of `O=C(Nc1cccn(Cc2ccccc2)c1=O)c1ccc2c(c1)B(O)OC2`, the EC50 ([1]; read-out: pEC50 (converted)) is reported as 1020 nM, the solubility [2] is reported as 3 µg/mL (≈ 0.00833 mM) and the Activity [11] is reported as “Non-Toxic”. The Activity [12] was “Non-Toxic” and the solubility at 4 h [13] was 3 µg/mL (≈ 0.00833 mM).

`O=C(O)c1ccc2c(c1)B(O)OC2` gave an EC50 ([1]; read-out: pEC50 (converted)) of 9330 nM and a solubility [2] of 950 µg/mL (≈ 5.34 mM).

Compound `CC(C(=O)NS(=O)(=O)C1CC1)c1ccc2c(c1)B(O)OC2` (racemic) has an EC50 ([1]; read-out: pEC50 (converted)) of 26.9 nM and a solubility [2] of over 1000 µg/mL.

For `Cc1ccc(NC(=O)c2cccn(Cc3ccccc3)c2=O)cc1B(O)O`, the Activity [14] was “inactive” and the EC50 ([1]; read-out: pEC50 (converted)) was over 31600 nM.

Compound `O=C(Nc1cccn(Cc2ccccc2)c1=O)c1ccc2c(c1F)B(O)OC2` has an EC50 ([1]; read-out: pEC50 (converted)) of 91.2 nM and a solubility [2] of 4 µg/mL (≈ 0.0106 mM).

For `CC(C)C(C(=O)O)c1ccc2c(c1)B(O)OC2` (racemic), the EC50 ([1]; read-out: pEC50 (converted)) was 646 nM and the solubility [2] was over 1000 µg/mL.

For `O=C(Nc1cccc(B(O)O)c1)c1cccn(Cc2ccccc2)c1=O`, the Activity [14] was “inactive” and the EC50 ([1]; read-out: pEC50 (converted)) was over 31600 nM.

Compound `O=C(O)CCc1ccc2c(c1)B(O)OC2` has an EC50 ([1]; read-out: pEC50 (converted)) of 1120 nM and a solubility [2] of over 1000 µg/mL.

Compound `CC(C(=O)O)c1ccc2c(c1)B(O)OC2` (racemic) has an EC50 ([1]; read-out: pEC50 (converted)) of 47.9 nM and a solubility [2] of over 1000 µg/mL.

With `OB1OCc2ccc(OCc3nnn[nH]3)cc21` the Cmax [4] was 71 ng/mL, the half-life [7] was 1.3 h and the AUC/dose [9] was 38 kg·ng·h/mL/mg. The bioavailability [10] was 13%, the EC50 ([1]; read-out: pEC50 (converted)) was 275 nM and the solubility [2] was over 1000 µg/mL. It also gave a Cmax [15] of 4900 ng/mL, a half-life [16] of 3.54 h and an AUC/dose [17] of 184 kg·ng·h/mL/mg. The bioavailability [18] was 62%.

`CC(C)(C)OC(=O)NCc1ccc(S(=O)(=O)NC(=O)CCc2ccc3c(c2)B(O)OC3)cc1` showed an EC50 [19] of 912 nM.

`O=C(Cc1ccc2c(c1)B(O)OC2)NS(=O)(=O)c1ccccc1` showed a bioavailability [20] of over 100%, an AUC/dose [21] of 2120 kg·ng·h/mL/mg and a half-life [22] of 3.88 h. It also gave a Cmax [23] of 53000 ng/mL, a Cmax [4] of 1290 ng/mL and a half-life [7] of 7.29 h. For the same compound, the AUC/dose [9] was 560 kg·ng·h/mL/mg, the bioavailability [10] was 28% and the EC50 ([1]; read-out: pEC50 (converted)) was 64.6 nM. The solubility [2] was 900 µg/mL (≈ 2.72 mM).

Work on `NC(=O)c1ccc2c(c1)B(O)OC2` yielded an EC50 ([1]; read-out: pEC50 (converted)) of over 31600 nM.

With `O=C(Cc1ccc2c(c1)B(O)OC2)NS(=O)(=O)C1CCCC1` the EC50 ([1]; read-out: pEC50 (converted)) was 15.1 nM and the solubility [2] was 880 µg/mL (≈ 2.72 mM).

In the case of `OB1OCc2ccc(Oc3nnn[nH]3)c(F)c21`, the EC50 ([1]; read-out: pEC50 (converted)) is reported as 724 nM and the solubility [2] is reported as over 1000 µg/mL.

`NCc1ccc(S(=O)(=O)NC(=O)CCc2ccc3c(c2)B(O)OC3)cc1` showed an EC50 [19] of 6030 nM.

Compound `O=C(Nc1cccn(Cc2ccccc2)c1=O)c1cc(F)c2c(c1)B(O)OC2` has an EC50 ([1]; read-out: pEC50 (converted)) of 2140 nM and a solubility [2] of 8 µg/mL (≈ 0.0212 mM).

With `C[C@H](C(=O)O)c1ccc2c(c1)B(O)OC2` the Cmax [4] was 1730 ng/mL, the half-life [7] was 1.14 h and the AUC/dose [9] was 451 kg·ng·h/mL/mg. The bioavailability [10] was 88%, the EC50 ([1]; read-out: pEC50 (converted)) was 871 nM and the solubility [2] was 950 µg/mL (≈ 4.61 mM). For the same compound, the Cmax [15] was 47200 ng/mL, the half-life [16] was 4.53 h and the AUC/dose [17] was 683 kg·ng·h/mL/mg. For the same compound, the bioavailability [18] was over 100%.

Compound `COc1cc2c(cc1C(=O)NS(=O)(=O)c1ccccc1)B(O)OC2` has an EC50 [19] of over 31600 nM.

`O=C(O)c1cccn1-c1ccc2c(c1)B(O)OC2` gave an EC50 ([1]; read-out: pEC50 (converted)) of 11500 nM and a solubility [2] of over 1000 µg/mL.

With `OB1OCc2ccc(Cc3nnn[nH]3)cc21` the Cmax [4] was 283 ng/mL, the half-life [7] was 3.67 h and the AUC/dose [9] was 103 kg·ng·h/mL/mg. It also gave a bioavailability [10] of 24%, an EC50 ([1]; read-out: pEC50 (converted)) of 9.12 nM and a solubility [2] of over 1000 µg/mL.

For `CC(C)(c1ccc2c(c1)B(O)OC2)c1nnn[nH]1`, the Cmax [4] was 1180 ng/mL, the half-life [7] was 1.05 h and the AUC/dose [9] was 612 kg·ng·h/mL/mg. The bioavailability [10] was 68%, the EC50 ([1]; read-out: pEC50 (converted)) was 26.3 nM and the solubility [2] was 930 µg/mL (≈ 3.81 mM). For the same compound, the Cmax [24] was 3880 ng/mL, the half-life [25] was 1.53 h and the AUC/dose [26] was 1049 kg·ng·h/mL/mg. The bioavailability [27] was over 100%.

`C[C@@H](C(=O)O)c1ccc2c(c1)B(O)OC2` showed a Cmax [4] of 1860 ng/mL, a half-life [7] of 16.6 h and an AUC/dose [9] of 429 kg·ng·h/mL/mg. For the same compound, the bioavailability [10] was 83%, the EC50 ([1]; read-out: EC50) was 40 nM and the EC50 ([1]; read-out: pEC50 (converted)) was 39.8 nM. For the same compound, the solubility [2] was over 1000 µg/mL, the Cmax [24] was 2710 ng/mL and the half-life [25] was 3.03 h. The AUC/dose [26] was 283 kg·ng·h/mL/mg and the bioavailability [27] was 55%.
